# From US7964624B1, “Inhibitors of serine proteases” (priority 2005, dated 2011)
# Where two headings read alike, the source gives them in different places.
# Target: T1, full-length hepatitis C viral protein NS3•4A (Hepatitis C virus genotype 1a, UniProt P27958)
# T1 construct: hexa-histidine (N); made in house; host or cells: Sf9 insect cells (baculovirus, pVL1392)
# Experiment: biochemical
# Set-up: species or system HCV sub-type strain 1a
# [1] = Enzyme Assay 2, HCV NS3 Peptide Cleavage Assay, apparent Ki
# [2] = Enzyme Assay 2 (HCV NS3 Peptide Cleavage Assay) activity, apparent Ki class
SMILES,Ki [2],further results
CCC[C@H](NC(=O)[C@@H]1C[C@]2(CC(c3cc(C)c(OCC)c(C)c3)=NO2)CN1C(=O)[C@@H](NC(=O)[C@@H]1C[C@H]1C(C)C)C(C)(C)C)C(=O)C(=O)NC1CC1 [Compound 983],–,Ki [1]: < 100 nM
COc1c(C)cc(C2=NO[C@]3(C2)C[C@@H](C(=O)N[C@@H](CC2CC2)C(=O)C(=O)NC2CC2)N(C(=O)[C@@H](NC(=O)CC2CCCCC2)C(C)(C)C)C3)cc1C [Compound 764],100 to 500 nM,–
CC(C)(C)[C@H](NC(=O)CC1CCCCCC1)C(=O)N1C[C@@]2(CC(c3cccc4cccnc34)=NO2)C[C@H]1C(=O)N[C@@H](CC1CC1)C(=O)C(N)=O [Compound 602],< 100 nM,–
CCC[C@H](NC(=O)[C@@H]1C[C@]2(CC(c3cccc4cccnc34)=NO2)CN1C(=O)[C@@H](NC(=O)OC(C)(C)C)C(C)(C)C)C(=O)C(=O)NC [Compound 644],100 to 500 nM,–
CCC[C@H](NC(=O)[C@@H]1C[C@]2(CC(c3ccc(F)c(Cl)c3)=NO2)CN1C(=O)[C@@H](NC(=O)CC1CCCCC1)C(C)(C)C)C(=O)C(=O)NC [Compound 609],< 100 nM,–
CCC[C@H](NC(=O)[C@@H]1C[C@]2(CC(c3cc(C)c(OC)c(Cl)c3)=NO2)CN1C(=O)[C@@H](NC(=O)CC1CCCCC1)C(C)(C)C)C(=O)C(N)=O [Compound 640],< 100 nM,–
CCC[C@H](NC(=O)[C@@H]1C[C@]2(CC(c3cccc(Cl)c3)=NO2)CN1C(=O)[C@@H](NC(=O)[C@@H]1C[C@H]1c1c[nH]cn1)C(C)(C)C)C(=O)C(=O)NC1CC1 [Compound 918],–,Ki [1]: 100 to 500 nM
CCC[C@H](NC(=O)[C@@H]1C[C@]2(CC(c3ccc(NC)c(Cl)c3)=NO2)CN1C(=O)[C@@H](NC(=O)CC1CCCCC1)C(C)(C)C)C(=O)C(=O)NC1CC1 [Compound 771],< 100 nM,–
CC(C)(C)[C@H](NC(=O)CC1CCCCC1)C(=O)N1C[C@@]2(CC(c3cccc4cccnc34)=NO2)C[C@H]1C(=O)N[C@@H](CC1CC1)C(=O)C(N)=O [Compound 603],< 100 nM,–
CCC[C@H](NC(=O)[C@@H]1C[C@]2(CC(c3cc(Cl)ccc3OC)=NO2)CN1C(=O)[C@@H](NC(=O)CC1CCCCC1)C(C)(C)C)C(=O)C(N)=O [Compound 636],< 100 nM,–
CCC[C@H](NC(=O)[C@@H]1C[C@]2(CC(c3cc(Cl)ccc3OC)=NO2)CN1C(=O)[C@@H](NC(=O)CC1CCCCCC1)C(C)(C)C)C(=O)C(=O)NC [Compound 634],< 100 nM,–
COc1cc(OC)c(C2=NO[C@]3(C2)C[C@@H](C(=O)N[C@@H](CC2CC2)C(=O)C(=O)NC2CC2)N(C(=O)[C@@H](NC(=O)OC(C)(C)C)C(C)(C)C)C3)cc1Cl [Compound 745],< 100 nM,–
C[C@@H]1CC(CC(=O)N[C@H](C(=O)N2C[C@@]3(CC(c4cccc(Cl)c4)=NO3)C[C@H]2C(=O)N[C@@H](CC2CC2)C(=O)C(N)=O)C(C)(C)C)C[C@@H](C)O1 (some centres unmarked) [Compound 468],< 100 nM,–
CCC[C@H](NC(=O)[C@@H]1C[C@]2(CC(c3ccc(F)c(Cl)c3)=NO2)CN1C(=O)[C@@H](NC(=O)OC1CCCC1)C(C)(C)C)C(=O)C(=O)NC1CC1 [Compound 652],< 100 nM,–
CCC[C@H](NC(=O)[C@@H]1C[C@]2(CC(c3cccc(Cl)c3)=NO2)CN1C(=O)[C@@H](NC(=O)CC1CCCCC1)C(C)(C)C)C(=O)C(=O)N1CC(OCC2CCOC2)C1 (some centres unmarked) [Compound 49],< 100 nM,–
CCC[C@H](NC(=O)[C@@H]1C[C@]2(CC(c3cc(Cl)c(OC)cc3C)=NO2)CN1C(=O)[C@@H](NC(=O)CC1CCCCCC1)C(C)(C)C)C(=O)C(N)=O [Compound 622],100 to 500 nM,–
CCC[C@H](NC(=O)[C@@H]1C[C@]2(CC(c3cc(Cl)c(OC)cc3OC)=NO2)CN1C(=O)[C@@H](NC(=O)CC1(C)CCOCC1)C(C)(C)C)C(=O)C(=O)N1CCC1 [Compound 356],< 100 nM,–
CCC[C@H](NC(=O)[C@@H]1C[C@]2(CC(c3cccc4cccnc34)=NO2)CN1C(=O)[C@@H](NC(=O)OC1CCCC1)C(C)(C)C)C(=O)C(=O)NC [Compound 647],100 to 500 nM,–
CCC[C@H](NC(=O)[C@@H]1C[C@]2(CC(c3cc(C)c(OCC4CC4)c(C)c3)=NO2)CN1C(=O)[C@@H](NC(=O)CC1CCCCC1)C(C)(C)C)C(=O)C(=O)NC1CC1 [Compound 406],< 100 nM,–
CCC[C@H](NC(=O)[C@@H]1C[C@]2(CC(c3ccc(F)c(Cl)c3)=NO2)CN1C(=O)[C@@H](NC(=O)CC1CCCCCC1)C(C)(C)C)C(=O)C(=O)NC1CC1 [Compound 611],< 100 nM,–
CNC(=O)C(=O)[C@H](CC1CC1)NC(=O)[C@@H]1C[C@]2(CC(c3cccc(Cl)c3)=NO2)CN1C(=O)[C@@H](NC(=O)[C@@H]1C[C@H]1c1cccnc1)C(C)(C)C [Compound 885],–,Ki [1]: 100 to 500 nM
COc1c(C)cc(C2=NO[C@]3(C2)C[C@@H](C(=O)N[C@@H](CC2CC2)C(=O)C(=O)NC2CC2)N(C(=O)[C@@H](NC(=O)OC(C)(C)C)C(C)(C)C)C3)cc1C [Compound 757],< 100 nM,–
CCC[C@H](NC(=O)[C@@H]1C[C@]2(CC(c3cc(Cl)c(OC)cc3C)=NO2)CN1C(=O)[C@@H](NC(=O)CC1CCCCC1)C(C)(C)C)C(=O)C(N)=O [Compound 620],< 100 nM,–
CNC(=O)C(=O)[C@H](CC1CC1)NC(=O)[C@@H]1C[C@]2(CC(N3Cc4ccccc4C3)=NO2)CN1C(=O)[C@@H](NC(=O)OC1CCCC1)C(C)(C)C [Compound 965],–,Ki [1]: 100 to 500 nM

SMILES,Ki [2],further results
CCC[C@H](NC(=O)[C@@H]1C[C@]2(CC(c3cc(Cl)ccc3OC)=NO2)CN1C(=O)[C@@H](NC(=O)[C@@H]1C[C@H]1c1ccccc1)C(C)(C)C)C(=O)C(=O)NC [Compound 969],–,Ki [1]: < 100 nM
CCC[C@H](NC(=O)[C@@H]1C[C@]2(CC(c3cccc(Cl)c3)=NO2)CN1C(=O)[C@@H](NC(=O)OCC1(C)COC1)C(C)(C)C)C(=O)C(=O)NC1CC1 [Compound 957],–,Ki [1]: 100 to 500 nM
CNC(=O)C(=O)[C@H](CC1CC1)NC(=O)[C@@H]1C[C@]2(CC(c3cc(Cl)c4c(c3)OCCO4)=NO2)CN1C(=O)[C@@H](NC(=O)CC1CCCCC1)C(C)(C)C [Compound 675],< 100 nM,–
CCNC(=O)C(=O)[C@H](CC1CC1)NC(=O)[C@@H]1C[C@]2(CC(c3cccc(Cl)c3)=NO2)CN1C(=O)[C@@H](NC(=O)CC1CCCCC1)C(C)(C)C [Compound 836],–,Ki [1]: < 100 nM
CNC(=O)C(=O)[C@H](CC1CC1)NC(=O)[C@@H]1C[C@]2(CC(c3cccc(Cl)c3)=NO2)CN1C(=O)[C@@H](NC(=O)[C@H]1C[C@@H]1C(C)C)C(C)(C)C [Compound 755],< 100 nM,–
CCC[C@H](NC(=O)[C@@H]1C[C@]2(CC(c3cc(Cl)ccc3OC)=NO2)CN1C(=O)[C@@H](NC(=O)CC1CCCCCC1)C(C)(C)C)C(=O)C(=O)NC1CC1 [Compound 649],100 to 500 nM,–
CCC[C@H](NC(=O)[C@@H]1C[C@]2(CC(c3ccc(F)c(Cl)c3)=NO2)CN1C(=O)[C@@H](NC(=O)OC(C)(C)C)C(C)(C)C)C(=O)C(=O)NC [Compound 631],< 100 nM,–
CCC[C@H](NC(=O)[C@@H]1C[C@]2(CC(c3cc(Cl)c(OC)cc3C)=NO2)CN1C(=O)[C@@H](NC(=O)OC1CCCC1)C(C)(C)C)C(=O)C(N)=O [Compound 651],100 to 500 nM,–
CCC[C@H](NC(=O)[C@@H]1C[C@]2(CC(c3ccc(F)c(Cl)c3)=NO2)CN1C(=O)[C@@H](NC(=O)CC(C)(C)C)C(C)(C)C)C(=O)C(=O)NC [Compound 612],< 100 nM,–
CCC[C@H](NC(=O)[C@@H]1C[C@]2(CC(c3cc(C)c(OC)c(C)c3)=NO2)CN1C(=O)[C@@H](NC(=O)CC1CCCCC1)C(C)(C)C)C(=O)C(N)=O [Compound 724],< 100 nM,–
CNC(=O)C(=O)[C@H](CC1CC1)NC(=O)[C@@H]1C[C@]2(CC(c3cccc(Cl)c3)=NO2)CN1C(=O)[C@@H](NC(=O)Cc1cccnc1)C(C)(C)C [Compound 958],–,Ki [1]: < 100 nM
CC(C)(C)[C@H](NC(=O)CC1CCCCC1)C(=O)N1C[C@@]2(CC(c3cccc(Cl)c3)=NO2)C[C@H]1C(=O)N[C@@H](CC1CC1)C(=O)C(=O)NC1CC1 [Compound 50],< 100 nM,–
CCC[C@H](NC(=O)[C@@H]1C[C@]2(CC(c3cc(C)c(OC)c(Cl)c3)=NO2)CN1C(=O)[C@@H](NC(=O)OC(C)(C)C)C(C)(C)C)C(=O)C(=O)NC [Compound 646],< 100 nM,–
CCC[C@H](NC(=O)[C@@H]1C[C@]2(CC(c3cc(Cl)c(OC)cc3OC)=NO2)CN1C(=O)[C@@H](NC(=O)CC1(C)CCOCC1)C(C)(C)C)C(=O)C(=O)NC1CC1 [Compound 286],< 100 nM,–
CCC[C@H](NC(=O)[C@@H]1C[C@]2(CC(c3cc(Cl)nc4ccccc34)=NO2)CN1C(=O)[C@@H](NC(=O)CC1CCCCC1)C(C)(C)C)C(=O)C(=O)NC1CC1 [Compound 638],< 100 nM,–
CCC[C@H](NC(=O)[C@@H]1C[C@]2(CC(c3cc(Cl)c(OC)cc3OC)=NO2)CN1C(=O)[C@@H](NC(=O)CC1CCCCCC1)C(C)(C)C)C(=O)C(=O)NC [Compound 655],100 to 500 nM,–
CNC(=O)C(=O)[C@H](CC1CC1)NC(=O)[C@@H]1C[C@]2(CC(c3cccc(Cl)c3)=NO2)CN1C(=O)[C@@H](NC(=O)CC1CC2CCC1C2)C(C)(C)C (some centres unmarked) [Compound 777],–,"Ki (read-out: Enzyme Assay 2 (HCV NS3 Peptide Cleavage Assay) activity, apparent Ki class): < 100 nM"
CNC(=O)C(=O)[C@H](CC1CC1)NC(=O)[C@@H]1C[C@]2(CC(c3cc(Cl)cc4c3OCOC4)=NO2)CN1C(=O)[C@@H](NC(=O)CC1CCCCC1)C(C)(C)C [Compound 677],< 100 nM,–
CCC[C@H](NC(=O)[C@@H]1C[C@]2(CC(c3ccc(F)c(Cl)c3)=NO2)CN1C(=O)[C@@H](NC(=O)OC(C)(C)C)C(C)(C)C)C(=O)C(=O)NC1CC1 [Compound 629],< 100 nM,–
COc1c(C)cc(C2=NO[C@]3(C2)CC(C(=O)N[C@H](CC2CC2)C(=O)C(N)=O)N(C(=O)[C@@H](NC(=O)CC2CCCCC2)C(C)(C)C)C3)cc1Cl (some centres unmarked) [Compound 658],100 to 500 nM,–
CNC(=O)C(=O)[C@H](CC1CC1)NC(=O)[C@@H]1C[C@]2(CC(c3cccc(Cl)c3)=NO2)CN1C(=O)[C@@H](NC(=O)[C@H]1C[C@@H]1c1cccs1)C(C)(C)C [Compound 739],< 100 nM,–
COc1c(C)cc(C2=NO[C@]3(C2)C[C@@H](C(=O)N[C@@H](CC2CC2)C(=O)C(N)=O)N(C(=O)[C@@H](NC(=O)[C@@H]2C[C@H]2c2ccccc2)C(C)(C)C)C3)cc1Cl [Compound 811],–,Ki [1]: < 100 nM
CCC[C@H](NC(=O)[C@@H]1C[C@]2(CC(c3cc(Cl)c(OC)cc3C)=NO2)CN1C(=O)[C@@H](NC(=O)CC(C)(C)C)C(C)(C)C)C(=O)C(=O)NC1CC1 [Compound 608],100 to 500 nM,–
